Data: patent publication US4681872A (priority 1985, dated 1987)
≈ marks a conversion by molar mass, not a printed value. Where two headings read alike, the source gives them in different places.

How the values were obtained:
[1] = tested on: Strep. faecium ATCC 8043; assay: antimicrobial spectrum, agar dilution MIC; type: cell-based; details: BHI agar, 35°-37° C., 20-24 hours
[2] = tested on: Strep. pyogenes M79061-98; assay: antimicrobial spectrum, agar dilution MIC; type: cell-based; details: BHI agar, 35°-37° C., 20-24 hours
[3] = tested on: Bact. fragilis 784; details: BHI agar, 35°-37° C., 20-24 hours
[4] = beagle dogs, oral, 10.0 mg/kg, buffered solution of the lactobionate salt in water; in comparison to erythromycin A
[5] = tested on: Strep. pyogenes 930; assay: antimicrobial spectrum, agar dilution MIC; details: BHI agar, 35°-37° C., 20-24 hours
[6] = tested on: Micrococcus luteus 9341; assay: antimicrobial spectrum, agar dilution MIC; details: BHI agar, 35°-37° C., 20-24 hours
[7] = tested on: Klebsiella pneumoniae 8045; assay: antimicrobial spectrum, agar dilution MIC; details: BHI agar, 35°-37° C., 20-24 hours
[8] = tested on: Pseudomonas aeruginosa BMH10; assay: antimicrobial spectrum, agar dilution MIC; details: BHI agar, 35°-37° C., 20-24 hours
[9] = tested on: Pseudomonas aeruginosa 5007; assay: antimicrobial spectrum, agar dilution MIC; details: BHI agar, 35°-37° C., 20-24 hours
[10] = tested on: Pseudomonas cepacia 2961; assay: antimicrobial spectrum, agar dilution MIC; details: BHI agar, 35°-37° C., 20-24 hours
[11] = tested on: Micrococcus luteus 4698; assay: antimicrobial spectrum, agar dilution MIC; details: BHI agar, 35°-37° C., 20-24 hours
[12] = human, in vivo; cited from earlier work
[13] = tested on: Bact. fragilis 784; assay: microbe, parasite or virus in culture; details: Bacteroides fragilis
[14] = tested on: Bact. fragilis UC-2; assay: microbe, parasite or virus in culture; details: Bacteroides fragilis, UC2

Structure (SMILES)	MIC [1]	MIC [2]	MIC [3]	half life [4]	peak blood level [4]	MIC [5] [µg/mL]	MIC [6]	MIC [7] [µg/mL]	MIC [8] [µg/mL]	MIC [9] [µg/mL]	MIC [10] [µg/mL]	MIC [11]	serum half-life [12] [h]	MIC [13] [µg/mL]	MIC [14] [µg/mL]
CCC1OC(=O)C(C)C(OC2CC(C)(OC)CC(C)O2)C(C)C(OC2OC(C)CC(N(C)C)C2O)C(C)(O)CC(C)C(=O)C(C)C2OC(=O)OC12C (stereo not drawn) [4"-deoxyerythromycin A 11,12-carbonate]	.05 µg/mL (≈ 0.0672 µM)	.12 µg/mL (≈ 0.161 µM)	.4 µg/mL (≈ 0.538 µM)	substantially longer half life	markedly higher peak blood level	100 (≈ 134 µM)	.02 µg/mL (≈ 0.0269 µM)	25 (≈ 33.6 µM)	50 (≈ 67.2 µM)	100 (≈ 134 µM)	50 (≈ 67.2 µM)	.1 µg/mL (≈ 0.134 µM)	–	–	–
CC[C@H]1OC(=O)[C@H](C)[C@@H](O[C@H]2C[C@@](C)(OC)[C@@H](O)[C@H](C)O2)[C@H](C)[C@@H](O[C@@H]2O[C@H](C)C[C@H](N(C)C)[C@H]2O)[C@](C)(O)C[C@@H](C)C(=O)[C@H](C)[C@@H](O)[C@]1(C)O [Erythromycin A, reference compound]	–	–	–	–	–	–	–	–	–	–	–	–	2 to 3	1.6 (≈ 2.18 µM)	1.6 (≈ 2.18 µM)
